Patent US9469653B2, “Pharmaceutical compositions for preventing or treating degenerative brain disease and method of screening the same” (KOREA INSTITUTE OF SCIENCE AND TECHNOLOGY, priority 2011, dated 2016)

Each compound was assayed against T1, human MAO-B enzyme (Homo sapiens (Human), UniProt P27338) (assay: Screening of MAO-B activity inhibition (Amplex Red monoamine oxidase assay kit, benzylamine substrate)). Conditions: 10 uM of the synthesized compound, pargyline-corrected.
T1 sequence (P27338 whole entry): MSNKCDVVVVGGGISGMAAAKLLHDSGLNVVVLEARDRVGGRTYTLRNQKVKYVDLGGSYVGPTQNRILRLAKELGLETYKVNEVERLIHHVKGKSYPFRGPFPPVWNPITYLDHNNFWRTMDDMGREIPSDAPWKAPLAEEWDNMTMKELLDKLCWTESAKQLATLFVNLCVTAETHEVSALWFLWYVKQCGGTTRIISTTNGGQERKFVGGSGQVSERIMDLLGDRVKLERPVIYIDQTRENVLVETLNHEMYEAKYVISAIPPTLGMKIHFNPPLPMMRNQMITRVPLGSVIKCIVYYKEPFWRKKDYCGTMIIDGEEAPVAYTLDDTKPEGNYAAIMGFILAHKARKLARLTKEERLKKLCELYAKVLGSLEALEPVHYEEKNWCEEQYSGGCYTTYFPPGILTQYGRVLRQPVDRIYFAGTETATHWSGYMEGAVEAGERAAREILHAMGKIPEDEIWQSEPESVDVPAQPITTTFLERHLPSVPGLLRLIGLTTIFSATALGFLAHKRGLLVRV
Assay type: biochemical
Protocol: A stock solution was prepared using a human MAO-B enzyme (purchased from Aldrich) and a Amplex® Red monoamine oxidase assay kit according to a preparation manual. The kit includes a 5× reaction buffer, an Amplex® red reagent (1 mg), HRP, DMSO, H2O2, p-tyramine (substrate of MAO-A, B), benzylamine (substrate of MAO-B), clorgiline (inhibitor of MAO-A), and pargyline (inhibitor of MAO-B). Among these reagents in the kit, benzylamine was used as a substrate for MAO-B, and pargyline was used as an MAO-B inhibitor. A solution as overall substrates was prepared as follows. 200 ul of a solution of 1 mg of Amplex® red sufficiently dissolved in 200 ul of DMSO, 100 ul of a mixed solution of HRP and 1 ml of a 1× buffer, 200 ul of a solution of benzylamine dissolved in 1.2 ml of dH2O were added to 9.5 ml of a 1× buffer to reach a total volume of 10 mL, which is sufficient for 100 wells. 0.5 ul of a mixture of MAO-B inhibitor pargyline and 1 ml of dH2O was put into each well. First, the activity of MAO-B was determined using 10 uM of the synthesized compound.
96 wells were injected with positive and negative types, and the wile type. The positive type included only substrate and hydrogen peroxide, and the negative type included only substrate. For the wild type, corresponding wells were injected with the enzyme, substrate, and MAO-B inhibitor, but with no synthesized compound. Afterward, 2 ul of the synthesized compound (1 mM) was added into each well, and the human MAO-B enzyme was put only into the 1st row of wells. 0.5 ug of the human MAO-B was put into each well along with 100 ul of a 1× buffer. The human MAO-B enzyme was put into the 2nd row of the wells along with 0.5 ul of a pargyline, the MAO-B inhibitor. To reduce an experimental error for accuracy, the test was repeated three times for each compound. After 30 minutes, 100 ul of the substrate solution was added into each well in a darkroom. The test was performed in the darkroom due to light sensitivity of the Amplex® reagent. Finally, a total volume of the reaction solution per well reached 200 ul. After about 2 to 3 hours, chromophoric degrees of the samples were measured. A variation in data values for the 1st and 2nd rows of the wells indicates the pure reaction activity of the MAO-B enzyme with the substrate. Using the samples with the synthesized compound the remaining activity of MAO-B after inhibited by the synthesized compound may be determined. This is because the activities of the other enzymes excluding the MAO-B enzyme may be excluded through this method. Compounds with high inhibitory activity at a concentration of 10 uM were screened from among the synthesized compounds at a compound concentration of 10 uM.
For “2-fluorophenyl-5-(pyrrolidine-1-yl)oxazolo[5,4-b]pyridine [Example 5-34]”, the “Remaining activity of MAO-B (%)” value was 8.4%. For `c1ccc(-c2nc3ccc(N4CCCC4)nc3o2)cc1` [Example 5-30, 2-phenyl-5-(pyrrolidine-1-yl)oxazolo[5,4-b]pyridine], the “Remaining activity of MAO-B (%)” value was 2.31%. `c1ccc(-c2nc3ccc(N4CCCC4)nc3s2)cc1` [Example 5-31, 2-phenyl-5-(pyrrolidine-1-yl)thiazolo[5,4-b]pyridine] was tested, and the “Remaining activity of MAO-B (%)” value was 1.7%. In the case of `Clc1ccccc1-c1nc2ccc(N3CCCC3)nc2o1` [Example 5-32, 2-chlorophenyl-5-(pyrrolidine-1-yl)oxazolo[5,4-b]pyridine], the “Remaining activity of MAO-B (%)” value is reported as 7.7%. In the case of `Clc1cccc(-c2nc3ccc(N4CCCC4)nc3o2)c1` [Example 5-33, 2-chlorophenyl-5-(pyrrolidine-1-yl)oxazolo[5,4-b]pyridine], the “Remaining activity of MAO-B (%)” value is reported as 14.2%. For `Clc1ccc(-c2nc3ccc(N4CCCC4)nc3o2)cc1` [Example 5-35, 2-chlorophenyl-5-(pyrrolidine-1-yl)oxazolo[5,4-b]pyridine], the “Remaining activity of MAO-B (%)” value was 42.4%. In the case of `Brc1ccc(-c2nc3ccc(N4CCCC4)nc3o2)cc1` [Example 5-36], the “Remaining activity of MAO-B (%)” value is reported as 33.5%. In the case of `c1ccc(-c2nc3ccc(N4CCCCC4)nc3o2)cc1` [Example 5-37, 2-phenyl-5-(piperidine-1-yl)oxazolo[5,4-b]pyridine], the “Remaining activity of MAO-B (%)” value is reported as 3.09%. In the case of `c1ccc(-c2nc3ccc(N4CCCCC4)nc3s2)cc1` [Example 5-38, 2-phenyl-5-(piperidine-1-yl)thiazolo[5,4-b]pyridine], the “Remaining activity of MAO-B (%)” value is reported as 1.8%. `Clc1ccccc1-c1nc2ccc(N3CCCCC3)nc2o1` [Example 5-39, 2-chlorophenyl-5-(piperidine-1-yl)oxazolo[5,4-b]pyridine] was tested, and the “Remaining activity of MAO-B (%)” value was 0.6%. In the case of `Fc1cccc(-c2nc3ccc(N4CCCCC4)nc3o2)c1` [Example 5-40, 2-(3-fluorophenyl)-5-(piperidine-1-yl)oxazolo[5,4-b]pyridine], the “Remaining activity of MAO-B (%)” value is reported as 13.8%. `Clc1cccc(-c2nc3ccc(N4CCCCC4)nc3o2)c1` [Example 5-41, 2-chlorophenyl-5-(piperidine-1-yl)oxazolo[5,4-b]pyridine] was tested, and the “Remaining activity of MAO-B (%)” value was 17%. For `Cc1cccc(-c2nc3ccc(N4CCCCC4)nc3o2)c1` [Example 5-42, 5-(piperidine-1-yl)-2-m-tolyloxazolo[5,4-b]pyridine], the “Remaining activity of MAO-B (%)” value was −7.8%. `O=[N+]([O-])c1cccc(-c2nc3ccc(N4CCCCC4)nc3o2)c1` [Example 5-43] was tested, and the “Remaining activity of MAO-B (%)” value was −21.5%. In the case of `N#Cc1cccc(-c2nc3ccc(N4CCCCC4)nc3o2)c1` [Example 5-44, 3-(5-(piperidine-1-yl)oxazolo[5,4-b]pyridine-2-yl)benzonitrile], the “Remaining activity of MAO-B (%)” value is reported as 10.1%. `Clc1ccc(-c2nc3ccc(N4CCCCC4)nc3o2)cc1` [Example 5-46] was tested, and the “Remaining activity of MAO-B (%)” value was 56.0%. For `Cc1ccc(-c2nc3ccc(N4CCCCC4)nc3o2)cc1` [Example 5-48, 5-(piperidine-1-yl)-2-p-tolyloxazolo[5,4-b]pyridine], the “Remaining activity of MAO-B (%)” value was 46.2%. `N#Cc1ccc(-c2nc3ccc(N4CCCCC4)nc3o2)cc1` [Example 5-50, 4-(5-(piperidine-1-yl)oxazolo[5,4-b]pyridine-2-yl)benzonitrile] was tested, and the “Remaining activity of MAO-B (%)” value was 71.2%. `Clc1cccc(-c2nc3ccc(NC4CCCC4)nc3o2)c1` [Example 5-51, 2-(3-chlorophenyl)-N-cyclopentyloxazolo[5,4-b]pyridine-5-amine] was tested, and the “Remaining activity of MAO-B (%)” value was 37.2%. With `c1ccc(-c2nc3ccc(NC4CCCCC4)nc3s2)cc1` [Example 5-52, N-cyclohexyl-2-phenylthiazolo[5,4-b]pyridine-5-amine] the “Remaining activity of MAO-B (%)” value was 43%. In the case of `Clc1cccc(-c2nc3ccc(NC4CCCCC4)nc3o2)c1` [Example 5-53, 2-(3-chlorophenyl)-N-cyclohexyloxazolo[5,4-b]pyridine-5-amine], the “Remaining activity of MAO-B (%)” value is reported as 39.3%. With `c1ccc(-c2nc3ccc(N4CCCCCC4)nc3o2)cc1` [Example 5-54, 5-(azepane-1-yl)-2-phenyloxazolo[5,4-b]pyridine] the “Remaining activity of MAO-B (%)” value was 57.5%. In the case of `c1ccc(-c2nc3ccc(N4CCCCCC4)nc3s2)cc1` [Example 5-55, 5-(azepane-1-yl)-2-phenylthiazolo[5,4-b]pyridine], the “Remaining activity of MAO-B (%)” value is reported as −1.8%. In the case of `Fc1ccc(-c2nc3ccc(N4CCCCCC4)nc3o2)cc1` [Example 5-56, 5-(azepane-1-yl)-2-(4-fluorophenyl)oxazolo[5,4-b]pyridine], the “Remaining activity of MAO-B (%)” value is reported as 61.4%. In the case of `c1ccc(CNc2ccc3nc(-c4ccccc4)oc3n2)cc1` [Example 5-57, N-benzyl-2-phenyloxazolo[5,4-b]pyridine-5-amine], the “Remaining activity of MAO-B (%)” value is reported as 63.1%. With `Fc1cccc(-c2nc3ccc(NCc4ccccc4)nc3o2)c1` [Example 5-59, N-benzyl-2-(3-fluorophenyl)oxazolo[5,4-b]pyridine-5-amine] the “Remaining activity of MAO-B (%)” value was 51.9%. For `Clc1cccc(-c2nc3ccc(NCc4ccccc4)nc3o2)c1` [Example 5-60, N-benzyl-2-(3-chlorophenyl)oxazolo[5,4-b]pyridine-5-amine], the “Remaining activity of MAO-B (%)” value was 55.4%. `Clc1ccc(-c2nc3ccc(NCc4ccccc4)nc3o2)cc1` [Example 5-61, N-benzyl-2-(4-chlorophenyl)oxazolo[5,4-b]pyridine-5-amine] was tested, and the “Remaining activity of MAO-B (%)” value was 46.4%. For `c1ccc(-c2nc3ccc(NCCN4CCOCC4)nc3s2)cc1` [Example 5-62, N-(2-morpholinoethyl)-2-phenylthiazolo[5,4-b]pyridine-5-amine], the “Remaining activity of MAO-B (%)” value was 42.7%. `CN(Cc1ccccc1)c1ccc2nc(-c3ccccc3)oc2n1` [Example 5-63, N-benzyl-N-methyl-2-phenyloxazolo[5,4-b]pyridine-5-amine] was tested, and the “Remaining activity of MAO-B (%)” value was 53.2%. With `CN(Cc1ccccc1)c1ccc2nc(-c3ccccc3)sc2n1` [Example 5-64, N-benzyl-N-methyl-2-phenylthiazole[5,4-b]pyridine-5-amine] the “Remaining activity of MAO-B (%)” value was 47.8%. `CN(Cc1ccccc1)c1ccc2nc(-c3ccccc3Cl)oc2n1` [Example 5-65, N-benzyl-2-(2-chlorophenyl)-N-methyloxazolo[5,4-b]pyridine-5-amine] was tested, and the “Remaining activity of MAO-B (%)” value was 84.1%. In the case of `CN(Cc1ccccc1)c1ccc2nc(-c3cccc(F)c3)oc2n1` [Example 5-66, N-benzyl-2-(3-fluorophenyl)-N-methyloxazolo[5,4-b]pyridine-5-amine], the “Remaining activity of MAO-B (%)” value is reported as 43%. In the case of `Cc1ccc(-c2nc3ccc(N(C)Cc4ccccc4)nc3o2)cc1` [Example 5-69, N-benzyl-N-methyl-2-p-tolyloxazolo[5,4-b]pyridine-5-amine], the “Remaining activity of MAO-B (%)” value is reported as 84.1%. In the case of `COc1ccc(-c2nc3ccc(N(C)Cc4ccccc4)nc3o2)cc1` [Example 5-70, N-benzyl-2-(4-methoxyphenyl)-N-methyloxazolo[5,4-b]pyridine-5-amine], the “Remaining activity of MAO-B (%)” value is reported as 52.4%. With `CN(Cc1ccccc1)c1ccc2nc(-c3ccc([N+](=O)[O-])cc3)oc2n1` [Example 5-71, N-benzyl-N-methyl-2-(4-nitrophenyl)oxazolo[5,4-b]pyridine-5-amine] the “Remaining activity of MAO-B (%)” value was 101.2%. `CN(Cc1ccccc1)c1ccc2nc(-c3ccc(C#N)cc3)oc2n1` [Example 5-72] was tested, and the “Remaining activity of MAO-B (%)” value was 108.8%. With `CNc1ccc2nc(-c3ccccc3)oc2n1` [Example 5-73, N-methyl-2-phenyloxazolo[5,4-b]pyridine-5-amine] the “Remaining activity of MAO-B (%)” value was 51%. `CNc1ccc2nc(-c3ccc(C)cc3)oc2n1` [Example 5-78, N-methyl-2-p-tolyloxazolo[5,4-b]pyridine-5-amine] was tested, and the “Remaining activity of MAO-B (%)” value was 45.8%. `CNc1ccc2nc(-c3ccc(OC)cc3)oc2n1` [Example 5-79, 2-(4-methoxyphenyl)-N-methyloxazolo[5,4-b]pyridine-5-amine] was tested, and the “Remaining activity of MAO-B (%)” value was 84.5%. `c1ccc(-c2nc3ccc(NC4CCCCC4)nc3o2)cc1` [Example 5-80, N-cyclohexyl-2-phenyloxazolo[5,6-b]pyridine-5-amine] was tested, and the “Remaining activity of MAO-B (%)” value was 11.1%.

What follows are compounds tested against T1, human MAO-B enzyme in the same assay as above. Conditions: not given.
Assay type: biochemical
For “2-fluorophenyl-5-(pyrrolidine-1-yl)oxazolo[5,4-b]pyridine [Example 5-34]”, the IC50 was 8.7 µM.

Same assay, conditions: activity assay at 0.001, 0.01, 0.1, 1 and 10 uM
With `c1ccc(-c2nc3ccc(N4CCCC4)nc3o2)cc1` [Example 5-30, 2-phenyl-5-(pyrrolidine-1-yl)oxazolo[5,4-b]pyridine] the IC50 was 0.41 µM. `c1ccc(-c2nc3ccc(N4CCCC4)nc3s2)cc1` [Example 5-31, 2-phenyl-5-(pyrrolidine-1-yl)thiazolo[5,4-b]pyridine] showed an IC50 of 7.3 µM. In the case of `Clc1ccccc1-c1nc2ccc(N3CCCC3)nc2o1` [Example 5-32, 2-chlorophenyl-5-(pyrrolidine-1-yl)oxazolo[5,4-b]pyridine], the IC50 is reported as 112 µM. With `c1ccc(-c2nc3ccc(N4CCCCC4)nc3o2)cc1` [Example 5-37, 2-phenyl-5-(piperidine-1-yl)oxazolo[5,4-b]pyridine] the IC50 was 2 µM. Compound `c1ccc(-c2nc3ccc(N4CCCCC4)nc3s2)cc1` [Example 5-38, 2-phenyl-5-(piperidine-1-yl)thiazolo[5,4-b]pyridine] has an IC50 of 8.3 µM. `Clc1ccccc1-c1nc2ccc(N3CCCCC3)nc2o1` [Example 5-39, 2-chlorophenyl-5-(piperidine-1-yl)oxazolo[5,4-b]pyridine] showed an IC50 of 13.2 µM. Compound `Fc1cccc(-c2nc3ccc(N4CCCCC4)nc3o2)c1` [Example 5-40, 2-(3-fluorophenyl)-5-(piperidine-1-yl)oxazolo[5,4-b]pyridine] has an IC50 of 0.27 µM.
